In one experiment the target is WDR5 (Homo sapiens, UniProt P61964). Put plainly: biochemical. The class given is binding.
Experiment [1] deals with MV4:11 human cancer cell lines. Put plainly: Cellular viability / anti-proliferative activity, CellTiter-Glo, 5 day protocol. The class given is cell-based. The conditions noted are these: Homo sapiens, MV4-11, 120 h, read-out: GI50 on cellular proliferation of MV4:11 human cancer cell lines. In outline: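 Cells seeded at 200 per well (7200 cells/mL) with compound in 2-fold serial dilutions from 30 μM top (22 points), 0.3% DMSO final. Viability read by CellTiter-Glo luminescence after 5 days; GI50 from sigmoidal dose-response fit, mean of at least two replicates.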
For orientation: ATP-based viability assays read luminescence as a measure of living cells.

Setting [2] is: […], 10mer-Thr-FAM probe 150 nM, Tb-anti-HIS 1 nM, 60 min, room temperature, read-out: Ki for Inhibition of WDR5 by TR-FRET assay.
[3] abbreviates: MV4:11 cells, 5 day incubation, CellTiter-Glo, mean of minimum two replicates.

pKi: −log10 of the molar value. Like-named read-outs stand apart in the source and are kept apart here.

The pKi is −log10 of the Ki, conventionally taken in molar units. On to `COc1cc(CN2CCc3c(cc(Cn4ccn(C)c4=N)cc3-c3ccc(F)cc3C)C2=O)cc(OC)c1` [Example 29, 2-(3,5-Dimethoxybenzyl)-5-(4-fluoro-2-methylphenyl)-7-((2-imino-3-methyl-2,3-dihydro-1H-imidazol-1-yl)methyl)-3,4-dihydroisoquinolin-1(2H)-one], for which the negative-log Ki (pKi) at WDR5 (setting [2]) is more than 10.30. The GI50 in experiment [1] is 63 nM.
As for `CCn1cc(-c2cc(Cn3ccsc3=N)cc3c2CCN(Cc2cc(C)nn2C)C3=O)c(C(F)(F)F)n1` [Example 106, 2-((1,3-Dimethyl-1H-pyrazol-5-yl)methyl)-5-(1-ethyl-3-(trifluoromethyl)-1H-pyrazol-4-yl)-7-((2-iminothiazol-3(2H)-yl)methyl)-3,4-dihydroisoquinolin-1(2H)-one], at WDR5 (Ki for Inhibition of WDR5 by TR-FRET assay), the pKi is more than 10.30. The GI50 in experiment [1] worked out at 182 nM.
In the case of `COc1cc(CN2CCc3c(cc(CN4CCCC4=N)cc3-c3cccnc3C(F)(F)F)C2=O)cc(OC)c1` [Example 107, 2-(3,5-Dimethoxybenzyl)-7-((2-iminopyrrolidin-1-yl)methyl)-5-(2-(trifluoromethyl)pyridin-3-yl)-3,4-dihydroisoquinolin-1(2H)-one], the pKi at WDR5 (setting [2]) was 9.96.
With `Cc1nccn1Cc1cc2c(c(-c3cn(C)nc3C(F)(F)F)c1)CCN(c1ccccc1OC(F)(F)F)C2=O` [Example 255, 7-((2-Methyl-1H-imidazol-1-yl)methyl)-5-(1-methyl-3-(trifluoromethyl)-1H-pyrazol-4-yl)-2-(2-(trifluoromethoxy)phenyl)-3,4-dihydroisoquinolin-1(2H)-one], the GI50 in experiment [1] (setting [3]) turned out to be 2790 nM.
As to `Cc1nccn1Cc1cc2c(c(-c3cn(C)nc3C(F)(F)F)c1)CCN(c1ccccc1OC(C)C)C2=O` [Example 256, 2-(2-Isopropoxyphenyl)-7-((2-methyl-1H-imidazol-1-yl)methyl)-5-(1-methyl-3-(trifluoromethyl)-1H-pyrazol-4-yl)-3,4-dihydroisoquinolin-1(2H)-one], in experiment [1] (setting [3]), the GI50 was 3860 nM.
`CCn1cc(-c2cc(Cc3cncn3C)cc3c2CCN([C@@H](C)c2cc(OC)ccn2)C3=O)c(C(F)(F)F)n1` [Example 257, (S)-5-(1-Ethyl-3-(trifluoromethyl)-1H-pyrazol-4-yl)-2-(1-(4-methoxypyridin-2-yl)ethyl)-7-((1-methyl-1H-imidazol-5-yl)methyl)-3,4-dihydroisoquinolin-1(2H)-one]: the GI50 in experiment [1] is less than 50 nM.

Values taken from US11999716B2, “WDR5 inhibitors and modulators” (priority 2018, dated 2024).
